According to patent EP0691985B1, “[…]” (MERRELL PHARMACEUTICALS INC., priority 1993, dated 1994):

Columns and labels:
ET receptors = assay: Effect of ET-l on phosphatidyl inositol turnover (IPl formation) in rat brain slices, counter-test; format: cell-based; conditions: rat striatum slices, ETl 10^-6M
Method: The buffer was changed every 15 minutes.

[1] = system: Endothelin Converting Enzyme (ECE); conditions: read-out: IC50 (concentration inhibiting 50% of the effect of pro-ETl 10^-6M); rat striatum slices; pro-ET-l 10^-6M; [3H]-IPl accumulation; determined graphically
Source text: In vitro Endothelin Converting Enzyme (ECE) assay via IPl formation in rat brain slices. This assay measures the enzymatic activity responsible for the generation of functional ET-l from pro-ET-l by measuring the stimulation of phosphatidyl inositol turnover as a marker of ET-l effects:
The precursor of ET-l, i.e., proendothelin-l (pro-ET-l), is unable to stimulate the phosphatidyl inositol turnover unless it is cleaved by a specific phosphoramidon sensitive protease, i.e., endothelin converting enzyme (ECE). […] For this assay, an adaptation of the procedure of Brown et al., J. Neurochem., 42:1379, 1984, was used.
The exact concentration of these solutions was checked by absorbance spectrophotometry at 280 nm, using the equation C = A / L ε280 [formula] (with C the concentration of the peptide in solution, A the absorbance measured, L the optical path length of the solution and ε280 the extinction coefficient of the peptide in solution (8370 and 7025 M^-1cm^-1 for pro-ET-l and ET-l, respectively)]. The stock solutions were then aliquoted, lyophilized and stored at -20°C. The peptides were redissolved and diluted in water on the day of the experiment (peptides for other tests also prepared by this method ). […]
In these conditions the stimulation of phosphatidyl inositol turnover by pro-ET-l can be assessed by measuring the amount of accumulated [^3H]-IPl.

Q: Which IC50 (ET receptors; [3H]-IPl accumulation, determined graphically, read-out: RC50 (concentration reducing 50% of the effect of ETl 10^-6M)) does the source give for `CC(C)C[C@H](NP(=O)(O)O[C@@H]1O[C@@H](C)[C@H](O)[C@@H](O)[C@H]1O)C(=O)N[C@@H](Cc1c[nH]c2ccccc12)C(=O)O` [phosphoramidon] here?
A: > 30 µM

Q: What about the “% of maximal reduction observed” value (ET receptors; recorded when RC50 >30 µM (up to 3 × 10^-5M)) of the same compound?
A: 75 ± 9%

Q: And the IC50 [1]?
A: 6.4 ± 1.1 µM
